For assay [1], the system named is MOLM-14 (acute myeloid leukemia) cell line. Nature of the assay: CellTiter-Glo luminescent cell viability assay, MOLM-14. Type of assay: cell-based, human. Particulars: Homo sapiens; for viability at 4 µM: MOLM-14, compound at 4 μM; for viability at 4 µM / viability at 10 µM: 72 h; for viability at 10 µM: MOLM-14, compound at 10 μM; for EC50: MOLM-14 cell line, 72 h incubation, CellTiter-Glo, read-out: EC50, growth inhibition of MOLM-14. Put shortly:
(§1)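 Adherent cells grow overnight, or suspension cells are seeded 1 h ahead; compound dilutions are then added and plates incubated 72 h at 37 °C. After 30 min at room temperature, CellTiter-Glo reagent is added and luminescence recorded. EC50 derives from signal relative to diluent control.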
On the technique in general: ATP-based viability assays read luminescence as a measure of living cells.

Assay [2] deals with A375 (malignant melanoma) cell line. Nature of the assay: CellTiter-Glo luminescent cell viability assay, A375. Type of assay: cell-based, human. Particulars: Homo sapiens, A-375; for viability at 4 µM: A375, compound at 4 μM; for viability at 4 µM / viability at 10 µM: 72 h; for viability at 10 µM: A375, compound at 10 μM; for EC50: A375 cell line, 72 h incubation, CellTiter-Glo, read-out: EC50, growth inhibition of A375. Put shortly: (§2)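 Cells were cultured at 37 °C, 5% CO2 with 10% FBS; adherent lines were plated overnight, suspension MOLM-14 plated 1 h before dosing. Compounds in H2O or DMSO were added at various concentrations for 72 h, and viability was read by luminescence. EC50 is the dose reducing signal to 50% of diluent control.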

The test system of assay [3] is HCT-116 (colorectal carcinoma) cell line. The experiment in a line: CellTiter-Glo luminescent cell viability assay, HCT-116. The conditions noted are these: Homo sapiens; for viability at 4 µM: HCT-116, compound at 4 μM; for viability at 4 µM / viability at 10 µM: 72 h; for viability at 10 µM: HCT-116, compound at 10 μM; for EC50: HCT-116 cell line, 72 h incubation, CellTiter-Glo, read-out: EC50, growth inhibition of HCT-116. It is filed as cell-based, human. Put shortly:
as §2

Assay [4] has as its system Huh7 (hepatocellular carcinoma) cell line. Nature of the assay: CellTiter-Glo luminescent cell viability assay, Huh7. Particulars: Homo sapiens, Huh-7; for viability at 4 µM: Huh7, compound at 4 μM; for viability at 4 µM / viability at 10 µM: 72 h; for viability at 10 µM: Huh7, compound at 10 μM; for EC50: Huh7 cell line, 72 h incubation, CellTiter-Glo, read-out: EC50, growth inhibition of Huh7. It is filed as cell-based, human. In short, it runs like this:
as §1

In assay [5] the test system is 786-O (renal adenocarcinoma) cell line. Nature of the assay: CellTiter-Glo luminescent cell viability assay, 786-O. It is filed as cell-based, human. Particulars: Homo sapiens, 786-0; for EC50: 786-O cell line, 72 h incubation, CellTiter-Glo, read-out: EC50, growth inhibition of 786-O; for viability at 4 µM / viability at 10 µM: 786-O, 72 h; for viability at 4 µM: compound at 4 μM; for viability at 10 µM: compound at 10 μM. In short, it runs like this:
as §2

Assay [6] relates to HepG2 (hepatocellular carcinoma) cell line. Nature of the assay: CellTiter-Glo luminescent cell viability assay, HepG2. It is filed as cell-based, human. The conditions noted are these: Homo sapiens; for viability at 4 µM / viability at 10 µM: HepG2, HepG, 72 h; for viability at 4 µM: compound at 4 μM; for viability at 10 µM: compound at 10 μM; for EC50: HepG2 cell line, 72 h incubation, CellTiter-Glo, read-out: EC50, growth inhibition of HepG2. Put shortly: as §1

The subject of assay [7] is PANC-1 (prancreatic carcinoma) cell line. The experiment in a line: CellTiter-Glo luminescent cell viability assay, PANC-1. The conditions noted are these: Homo sapiens; for viability at 4 µM: PANC-1, 4 μM; for viability at 4 µM / viability at 10 µM: 72 h, % of signal of diluent-treated cultures; for viability at 10 µM: PANC-1, 10 μM; for EC50: PANC-1 cell line, 72 h incubation, CellTiter-Glo, read-out: EC50 (growth inhibition assay of PANC-1 cell line). It is filed as cell-based. In short, it runs like this:
as §1

As to `CC(C)(C)NC1CCN(c2c(C#N)c(Nc3ccccc3C(F)(F)F)nc3ccccc23)CC1` [Compound 3254CN, 2-(2-trifluoromethylphenylamino)-3-cyano-4-[4-(tert-butylamino)piperidin-1-yl]quinoline], the viability (commonly a read-out of living cells in per cent, often relative to untreated cells) at 4 µM was 81.4% in assay [1]; 0.4% in assay [2]; 0.3% in assay [3]; 34.2% in assay [4]; 6.3% in assay [5]; 6.9% in assay [6]. Further, the viability at 4 µM in assay [7] is 78.4%. In addition, the viability at 10 µM in assay [1] is 0.3%; in assay [2], 0.2%; in assay [3] it was 0.2%; in assay [4], 0.3%; in assay [5], 0.3%; in assay [6], 0.2%. Moreover, in assay [7], the viability at 10 µM is 3%. Moreover, the concentration for a half-maximal effect (EC50) (commonly the concentration that produces a half-maximal response) in assay [1] was in the range of 5 to 10 µM; in assay [2] it was 0.5 to 5 µM; in assay [3] it was 0.5 to 5 µM; in assay [4], 0.5 to 5 µM; in assay [5] it was 0.5 to 5 µM; in assay [6] it was 0.5 to 5 µM. For the same compound, the concentration giving a half-maximal response (EC50) in assay [7] is 5 to 10 µM.
Take `CC(C)(C)NC1CCN(c2c(C#N)c(NCc3ccco3)nc3ccccc23)CC1` [Compound 3302CN, 2-[(furan-2-ylmethyl)amino]-3-cyano-4-[4-(tert-butylamino)piperidin-1-yl]quinoline]: the viability at 4 µM came out at 82.3% in assay [1]; 81.6% in assay [2]; 57.4% in assay [3]; 76.6% in assay [4]; 86.1% in assay [5]; 83.3% in assay [6]. The viability at 4 µM in assay [7] was determined as 95.8%. Also, the viability at 10 µM in assay [1] was 67%; in assay [2], 14.3%; in assay [3], 10.8%; in assay [4], 40.1%; in assay [5] it was 48.1%; in assay [6] it was 57.5%. The viability at 10 µM in assay [7] worked out at 82.3%.
As for `CC(C)(C)NC1CCN(c2c(C#N)c(Nc3ccc(F)c(F)c3)nc3ccccc23)CC1` [Compound 3264CN, 2-(3,4-difluorophenylamino)-3-cyano-4-[4-(tert-butylamino)piperidin-1-yl]quinoline], the viability at 4 µM in assay [1] is 0.4%; in assay [2], 12.8%; in assay [3], 0.3%; in assay [4], 11.7%; in assay [5], 12.7%; in assay [6] it was 0.5%. Further, in assay [7], the viability at 4 µM amounted to 78.1%. In addition, the viability at 10 µM in assay [1] was determined as 0.5%; in assay [2], 0.4%; in assay [3], 0.3%; in assay [4], 0.5%; in assay [5], 0.6%; in assay [6], 0.3%. Further, in assay [7], the viability at 10 µM stood at 2.4%. Further, the EC50 in assay [1], in assay [3], in assay [4], in assay [5] and in assay [6] was 0.5 to 5 µM each time.
With `N#Cc1c(NCc2ccc(Cl)cc2)nc2ccccc2c1N1CCC(Oc2ccccc2)CC1` [Compound 2940CN, 2-(4-chlorobenzylamino)-3-cyano-4-(4-phenoxypiperidin-1-yl)quinoline], the viability at 4 µM in assay [1] came to 102%; in assay [2] it was 104%; in assay [3], 92.9%; in assay [4], 97.3%; in assay [5] it was 97.1%; in assay [6] it was 89.7%. Also, the viability at 4 µM in assay [7] came to 103%. For the same compound, the viability at 10 µM is 89.1% in assay [1]; 98.3% in assay [2]; 82.9% in assay [3]; 88.9% in assay [4]; 91.7% in assay [5]; 79.4% in assay [6]. In assay [7], the viability at 10 µM was 102%.
Take `CNC1CCCN(c2c(C#N)c(NCc3ccc(Cl)cc3)nc3ccccc23)C1` (stereo not drawn) [Compound 3158CN, 2-(4-chlorobenzylamino)-3-cyano-4-[3-(methylamino)piperidin-1-yl]quinoline]: the viability at 4 µM in assay [1] turned out to be 91.5%; in assay [2], 70.9%; in assay [3] it was 74.2%; in assay [4], 86.4%; in assay [5] it was 88.4%; in assay [6], 84.6%. Also, the viability at 4 µM in assay [7] came out at 107%. Besides, the viability at 10 µM was determined as 0.6% in assay [1]; 0.3% in assay [2]; 0.4% in assay [3]; 0.5% in assay [4]; 0.5% in assay [5]; 0.4% in assay [6]. The viability at 10 µM in assay [7] turned out to be 53.1%. Further, the 50% effective concentration (EC50) lay in the range of 5 to 10 µM in assay [1]; 0.5 to 5 µM in assay [2]; 0.5 to 5 µM in assay [3]; 5 to 10 µM in assay [4]; 5 to 10 µM in assay [5]; 0.5 to 5 µM in assay [6]. Also, the EC50 in assay [7] was in the range of 5 to 10 µM.
Take `CC(C)(C)NC1CCN(c2c(C#N)c(Nc3ccncn3)nc3ccccc23)CC1` [Compound 3282CN, 2-(pyrimidin-4-ylamino)-3-cyano-4-[4-(tert-butylamino)piperidin-1-yl]quinoline]: the viability at 4 µM turned out to be 93.3% in assay [1]; 88.6% in assay [2]; 73.7% in assay [3]; 97.9% in assay [4]; 102% in assay [5]; 58.9% in assay [6]. In addition, the viability at 4 µM in assay [7] came out at 102%. Also, the viability at 10 µM in assay [1] is 63.5%; in assay [2] it was 64.1%; in assay [3] it was 39.8%; in assay [4] it was 75.4%; in assay [5], 76.9%; in assay [6], 40.3%. Also, the viability at 10 µM in assay [7] was determined as 77.3%.
`CC(C)(C)OC(=O)NC1CCN(c2c(C#N)c(NCc3ccc(Cl)cc3)nc3ccccc23)CC1` [Compound 182CN, 2-(4-chlorobenzylamino)-3-cyano-4-{4-[(tert-butyloxycarbonyl)amino]piperidin-1-yl}quinoline]: the viability at 4 µM in assay [1] came to 86.9%; in assay [2], 94.4%; in assay [3], 66.9%; in assay [4] it was 86%; in assay [5] it was 89.9%; in assay [6] it was 91.6%. For the same compound, the viability at 4 µM in assay [7] was 100%. The viability at 10 µM in assay [1] was 48.7%; in assay [2] it was 90.2%; in assay [3], 47.7%; in assay [4], 76.2%; in assay [5] it was 83.9%; in assay [6], 89.8%. Moreover, the viability at 10 µM in assay [7] was found to be 95.3%.
On to `CC(C)(C)NC1CCN(c2c(C#N)c(Nc3ccc(F)cc3)nc3ccccc23)CC1` [Compound 3260CN, 2-(4-fluorophenylamino)-3-cyano-4-[4-(tert-butylamino)piperidin-1-yl]quinoline], for which the viability at 4 µM came to 86.7% in assay [1]; 2.2% in assay [2]; 1.2% in assay [3]; 50.7% in assay [4]; 17.5% in assay [5]; 49.1% in assay [6]. Moreover, the viability at 4 µM in assay [7] was found to be 84.1%. For the same compound, the viability at 10 µM in assay [1] was determined as 0.9%; in assay [2] it was 0.4%; in assay [3], 0.3%; in assay [4] it was 0.7%; in assay [5] it was 0.3%; in assay [6] it was 0.4%. The viability at 10 µM in assay [7] turned out to be 39.1%. In addition, the EC50 in assay [1] was in the range of 5 to 10 µM; in assay [2], 0.5 to 5 µM; in assay [3] it was 0.5 to 5 µM; in assay [4], 5 to 10 µM; in assay [5] it was 0.5 to 5 µM; in assay [6] it was 0.5 to 5 µM. In addition, the EC50 in assay [7] lay within 5 to 10 µM.

The values above are taken from patent publication US10577362B2, “Substituted 2, 4-diamino-quinoline derivatives for use in the treatment of proliferative diseases” (GENOSCIENCE PHARMA, priority 2016, dated 2020).
